Assay results from ChEMBL document CHEMBL3885861, “Open TG-GATES”.

Organism: Rattus norvegicus
Experiment: Open TG-GATES - Regimen: Single
Type: toxicity, organism-based, Sprague-Dawley
Set-up: regimen Single, gender Male, age 6 weeks
Details: in vivo, po, 0 mg/kg, route gavage, dose level Control; for APTT / Bas / Eos / Fbg / Hb / Ht / Lym / MCH / MCHC / MCV / Mono / Neu / PT / Plat / RBC / Ret / WBC: tissue Blood; for KIDNEY_L / KIDNEY_R / KIDNEY_TOTAL: tissue Kidney; for LIVER: tissue Liver; for A/G / ALP / ALT / AST / BUN / CRE / Ca / Cl / DBIL / GLC / IP / K / LDH / Na / PL / RALB / TBIL / TC / TG / TP / gamma-GTP: tissue Plasma

CN1C(C(=O)Nc2ccccn2)=C(O)c2sc(Cl)cc2S1(=O)=O [LORNOXICAM] gave a TERMINAL_BW (3 h) of 223 g, an APTT (3 h) of 20 s and a Bas (3 h) of 1%. The Eos (3 h) was 1.4%, the Fbg (3 h) was 213.2 mg/dL and the Hb (3 h) was 13.4 g/dL. The Ht (3 h) was 39.7%, the Lym (3 h) was 78.8% and the MCH (3 h) was 21 pg. For the same compound, the MCHC (3 h) was 33.8%, the MCV (3 h) was 62.2 fL and the Mono (3 h) was 2.8%. For the same compound, the Neu (3 h) was 16.4%, the PT (3 h) was 11.9 s and the Plat (3 h) was 135.7 x10_4/uL. It also gave an RBC (3 h) of 638 x10_4/ul, a Ret (3 h) of 6.8% and a WBC (3 h) of 93 x10_2/uL. The KIDNEY_L (3 h) was 1 g, the KIDNEY_R (3 h) was 1 g and the KIDNEY_TOTAL (3 h) was 2 g. The LIVER (3 h) was 10.1 g, the A/G (3 h) was 1.7 and the ALP (3 h) was 1010.4 IU/L. It also gave an ALT (3 h) of 36.2 IU/L, an AST (3 h) of 73 IU/L and a BUN (3 h) of 11.8 mg/dL. The CRE (3 h) was 0.4 mg/dL, the Ca (3 h) was 10.5 mg/dL and the Cl (3 h) was 103.4 meq/L. For the same compound, the DBIL (3 h) was 0.076 mg/dL, the GLC (3 h) was 197.2 mg/dL and the IP (3 h) was 8.6 mg/dL. The K (3 h) was 3.7 meq/L, the LDH (3 h) was 168 IU/L and the Na (3 h) was 141.4 meq/L. The PL (3 h) was 133.4 mg/dL, the RALB (3 h) was 3.5 g/dL and the TBIL (3 h) was 0.1 mg/dL. It also gave a TC (3 h) of 71.2 mg/dL, a TG (3 h) of 80 mg/dL and a TP (3 h) of 5.5 g/dL. It also gave a gamma-GTP (3 h) of 1.4 IU/L, a TERMINAL_BW (6 h) of 219.8 g and an APTT (6 h) of 19.8 s. For the same compound, the Bas (6 h) was 0.8%, the Eos (6 h) was 1% and the Fbg (6 h) was 221.2 mg/dL. The Hb (6 h) was 13.2 g/dL, the Ht (6 h) was 39.3% and the Lym (6 h) was 81.2%. The MCH (6 h) was 20.9 pg, the MCHC (6 h) was 33.6% and the MCV (6 h) was 62.1 fL. It also gave a Mono (6 h) of 2.6%, a Neu (6 h) of 14.2% and a PT (6 h) of 12 s. The Plat (6 h) was 119.7 x10_4/uL, the RBC (6 h) was 632.4 x10_4/ul and the Ret (6 h) was 7.2%. For the same compound, the WBC (6 h) was 109.1 x10_2/uL, the KIDNEY_L (6 h) was 0.9 g and the KIDNEY_R (6 h) was 1 g. It also gave a KIDNEY_TOTAL (6 h) of 1.9 g, an LIVER (6 h) of 9.6 g and an A/G (6 h) of 1.6. The ALP (6 h) was 765.4 IU/L, the ALT (6 h) was 33.4 IU/L and the AST (6 h) was 68.8 IU/L. It also gave a BUN (6 h) of 11 mg/dL, a CRE (6 h) of 0.4 mg/dL and a Ca (6 h) of 10.4 mg/dL. It also gave a Cl (6 h) of 103 meq/L, a DBIL (6 h) of 0.066 mg/dL and a GLC (6 h) of 196.8 mg/dL. It also gave an IP (6 h) of 9.1 mg/dL, a K (6 h) of 3.9 meq/L and an LDH (6 h) of 209.2 IU/L. The Na (6 h) was 140.8 meq/L, the PL (6 h) was 146 mg/dL and the RALB (6 h) was 3.4 g/dL. The TBIL (6 h) was 0.1 mg/dL, the TC (6 h) was 84.8 mg/dL and the TG (6 h) was 64.8 mg/dL. The TP (6 h) was 5.6 g/dL, the gamma-GTP (6 h) was 0.8 IU/L and the TERMINAL_BW (9 h) was 218.6 g. For the same compound, the APTT (9 h) was 20.3 s, the Bas (9 h) was 0.8% and the Eos (9 h) was 0.8%. The Fbg (9 h) was 230.6 mg/dL, the Hb (9 h) was 13.3 g/dL and the Ht (9 h) was 39.8%. It also gave a Lym (9 h) of 74.4%, an MCH (9 h) of 20.9 pg and an MCHC (9 h) of 33.4%. It also gave an MCV (9 h) of 62.7 fL, a Mono (9 h) of 3.2% and a Neu (9 h) of 20.4%. It also gave a PT (9 h) of 12.5 s, a Plat (9 h) of 119.2 x10_4/uL and an RBC (9 h) of 634.2 x10_4/ul. It also gave a Ret (9 h) of 7.6%, a WBC (9 h) of 126.9 x10_2/uL and a KIDNEY_L (9 h) of 1 g. For the same compound, the KIDNEY_R (9 h) was 1 g, the KIDNEY_TOTAL (9 h) was 1.9 g and the LIVER (9 h) was 9.3 g. The A/G (9 h) was 1.7, the ALP (9 h) was 766.8 IU/L and the ALT (9 h) was 33.2 IU/L. The AST (9 h) was 65.4 IU/L, the BUN (9 h) was 9.8 mg/dL and the CRE (9 h) was 0.3 mg/dL. The Ca (9 h) was 10.5 mg/dL, the Cl (9 h) was 103.6 meq/L and the DBIL (9 h) was 0.076 mg/dL. It also gave a GLC (9 h) of 197.8 mg/dL, an IP (9 h) of 9.6 mg/dL and a K (9 h) of 3.8 meq/L. For the same compound, the LDH (9 h) was 162.2 IU/L, the Na (9 h) was 142.2 meq/L and the PL (9 h) was 136.8 mg/dL. The RALB (9 h) was 3.5 g/dL, the TBIL (9 h) was 0.1 mg/dL and the TC (9 h) was 75.2 mg/dL. The TG (9 h) was 60.6 mg/dL, the TP (9 h) was 5.6 g/dL and the gamma-GTP (9 h) was 1.2 IU/L. It also gave a TERMINAL_BW (24 h) of 238.4 g, an APTT (24 h) of 19.9 s and a Bas (24 h) of 0.2%. For the same compound, the Eos (24 h) was 1%, the Fbg (24 h) was 225.8 mg/dL and the Hb (24 h) was 13.5 g/dL. For the same compound, the Ht (24 h) was 40.7%, the Lym (24 h) was 80% and the MCH (24 h) was 20.9 pg. For the same compound, the MCHC (24 h) was 33.3%, the MCV (24 h) was 62.6 fL and the Mono (24 h) was 3.2%. The Neu (24 h) was 15.2%, the PT (24 h) was 11.6 s and the Plat (24 h) was 133.9 x10_4/uL. The RBC (24 h) was 649.4 x10_4/ul, the Ret (24 h) was 6.8% and the WBC (24 h) was 101.7 x10_2/uL. It also gave a KIDNEY_L (24 h) of 1 g, a KIDNEY_R (24 h) of 1 g and a KIDNEY_TOTAL (24 h) of 2 g. For the same compound, the LIVER (24 h) was 11.3 g, the A/G (24 h) was 1.6 and the ALP (24 h) was 874.6 IU/L. The ALT (24 h) was 35.2 IU/L, the AST (24 h) was 65.8 IU/L and the BUN (24 h) was 14.8 mg/dL. The CRE (24 h) was 0.4 mg/dL, the Ca (24 h) was 10.8 mg/dL and the Cl (24 h) was 103.8 meq/L. The DBIL (24 h) was 0.1 mg/dL, the GLC (24 h) was 218 mg/dL and the IP (24 h) was 7.3 mg/dL. It also gave a K (24 h) of 4 meq/L, an LDH (24 h) of 177.6 IU/L and a Na (24 h) of 141.4 meq/L. It also gave a PL (24 h) of 138.4 mg/dL, an RALB (24 h) of 3.5 g/dL and a TBIL (24 h) of 0.2 mg/dL. For the same compound, the TC (24 h) was 69.2 mg/dL, the TG (24 h) was 101.2 mg/dL and the TP (24 h) was 5.6 g/dL. The gamma-GTP (24 h) was 1 IU/L.
